# Molecular target: Rho-associated protein kinase 2 (Homo sapiens, UniProt O75116)
# Experiment: Binding Assay: ROCK-II inhibitory activity can be measured using the ROCK-II Assay Kit (Molecular Devices, inc.; Sunnyvale, Calif.).
# Chain of Rho-associated protein kinase 2 (O75116 whole entry): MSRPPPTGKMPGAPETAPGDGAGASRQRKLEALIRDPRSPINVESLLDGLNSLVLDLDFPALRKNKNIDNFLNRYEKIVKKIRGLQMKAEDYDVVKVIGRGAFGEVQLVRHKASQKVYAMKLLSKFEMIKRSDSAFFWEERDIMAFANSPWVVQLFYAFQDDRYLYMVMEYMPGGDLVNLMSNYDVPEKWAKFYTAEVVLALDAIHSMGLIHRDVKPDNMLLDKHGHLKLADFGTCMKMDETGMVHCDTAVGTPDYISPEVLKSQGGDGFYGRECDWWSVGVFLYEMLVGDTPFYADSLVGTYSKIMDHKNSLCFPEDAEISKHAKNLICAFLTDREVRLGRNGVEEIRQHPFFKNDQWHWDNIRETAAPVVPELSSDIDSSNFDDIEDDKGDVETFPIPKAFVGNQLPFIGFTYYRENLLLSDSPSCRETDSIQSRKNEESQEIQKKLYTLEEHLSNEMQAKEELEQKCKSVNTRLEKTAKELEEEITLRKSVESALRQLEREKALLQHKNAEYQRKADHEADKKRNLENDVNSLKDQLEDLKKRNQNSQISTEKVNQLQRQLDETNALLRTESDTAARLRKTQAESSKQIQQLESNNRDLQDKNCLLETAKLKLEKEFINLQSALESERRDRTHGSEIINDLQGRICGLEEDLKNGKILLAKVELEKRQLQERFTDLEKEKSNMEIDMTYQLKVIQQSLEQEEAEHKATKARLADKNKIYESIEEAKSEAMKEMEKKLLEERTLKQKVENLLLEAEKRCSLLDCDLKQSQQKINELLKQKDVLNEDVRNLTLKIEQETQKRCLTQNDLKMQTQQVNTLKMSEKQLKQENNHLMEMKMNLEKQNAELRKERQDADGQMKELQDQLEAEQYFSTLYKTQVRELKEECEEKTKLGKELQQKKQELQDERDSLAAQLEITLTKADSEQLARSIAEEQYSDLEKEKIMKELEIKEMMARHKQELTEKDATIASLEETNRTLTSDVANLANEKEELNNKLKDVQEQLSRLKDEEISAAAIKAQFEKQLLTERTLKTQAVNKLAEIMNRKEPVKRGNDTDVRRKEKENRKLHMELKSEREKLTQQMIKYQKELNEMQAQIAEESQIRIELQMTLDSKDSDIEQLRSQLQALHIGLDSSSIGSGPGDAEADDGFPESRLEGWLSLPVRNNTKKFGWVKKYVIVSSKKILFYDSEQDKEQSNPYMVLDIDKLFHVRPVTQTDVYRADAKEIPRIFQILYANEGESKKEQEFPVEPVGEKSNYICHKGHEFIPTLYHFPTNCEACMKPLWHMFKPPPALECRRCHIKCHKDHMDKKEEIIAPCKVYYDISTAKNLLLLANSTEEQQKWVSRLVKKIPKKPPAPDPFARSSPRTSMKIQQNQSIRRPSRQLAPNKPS
compound,measurement,value
O=C(Nc1ccccc1-c1nc(Nc2ccc3[nH]ncc3c2)c2ccccc2n1)c1ccccn1,IC50,8.3 µM
